This passage reports EC50 and Ki results from ChEMBL document CHEMBL1135592, “Structural determinants of A(3) adenosine receptor activation: nucleoside ligands at the agonist/antagonist boundary” (J Med Chem, 2002).

In test [1] the target is T1, Adenosine receptor A3 (Homo sapiens, UniProt P0DMS8).
T1 sequence (P0DMS8 whole entry): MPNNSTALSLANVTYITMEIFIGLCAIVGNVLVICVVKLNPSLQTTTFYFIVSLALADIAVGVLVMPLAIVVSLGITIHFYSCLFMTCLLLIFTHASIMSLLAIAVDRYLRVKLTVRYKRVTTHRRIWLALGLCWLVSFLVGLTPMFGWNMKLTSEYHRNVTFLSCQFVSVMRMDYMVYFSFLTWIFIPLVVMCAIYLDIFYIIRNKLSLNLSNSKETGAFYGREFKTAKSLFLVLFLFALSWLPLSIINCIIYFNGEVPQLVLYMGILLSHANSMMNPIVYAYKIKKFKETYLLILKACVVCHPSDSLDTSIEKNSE
The test is described as follows: Effect on forskolin-stimulated cyclic AMP production in intact chinese hamster ovary (CHO) cell expressing the human Adenosine A3 receptor. It counts as functional.

Test [2] addresses T1, Adenosine receptor A3. The test is described as follows: Binding affinity towards human Adenosine A3 receptor wild type.
Test [3] addresses Adenosine receptor A3 (Homo sapiens, UniProt P0DMS8, W243A). The test can be described thus: Binding affinity towards Adenosine A3 receptor (W243 A mutant receptor).
In test [4] the target is Adenosine receptor A3 (Homo sapiens, UniProt P0DMS8, H95A). The test is described as follows: Binding affinity towards Adenosine A3 receptor (H95A mutant receptor).
Test [5] has as its target Adenosine receptor A3 (Homo sapiens, UniProt P0DMS8). The test is described as follows: Binding affinity towards Adenosine A3 receptor (W243 mutant receptor).
Test [6] deals with T2, Adenosine receptor A3 (Rattus norvegicus, UniProt P28647).
T2 sequence (P28647 whole entry): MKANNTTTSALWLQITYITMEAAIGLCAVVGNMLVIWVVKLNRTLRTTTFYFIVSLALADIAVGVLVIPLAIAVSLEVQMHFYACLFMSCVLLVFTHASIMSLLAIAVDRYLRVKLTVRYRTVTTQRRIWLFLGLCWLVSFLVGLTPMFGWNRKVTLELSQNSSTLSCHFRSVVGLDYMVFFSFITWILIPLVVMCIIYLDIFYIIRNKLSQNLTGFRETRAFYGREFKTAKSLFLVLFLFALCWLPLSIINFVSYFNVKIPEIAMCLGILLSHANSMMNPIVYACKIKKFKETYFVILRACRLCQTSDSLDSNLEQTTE
The test can be described thus: Binding affinity of adenosine derivative for endogenous rat Adenosine A3 receptor of RBL-2H3.

For test [7], the target named is T2, Adenosine receptor A3. The test is described as follows: Binding affinity of adenosine derivative for recombinant rat Adenosine A3 receptor expressed on CHO cell.
In test [8] the target is T1, Adenosine receptor A3. The test is described as follows: Affinity for human Adenosine A3 receptor expressed in CHO cell. It counts as cell-based.
Test [9] deals with T1, Adenosine receptor A3. The test can be described thus: Affinity towards human Adenosine A3 receptor in CHO cell. It counts as cell-based.
The target in test [10] is T1, Adenosine receptor A3. The test can be described thus: biochemical.
Description: Binding affinity in membrane of CHO cell stably expressing recombinant human Adenosine A3 receptor in the presence of GTPgammaS using [3H]8-ethyl-4-methyl-2-phenyl-(8R)-4,5,7,8-tetrahydro-1H-imidazo[2,1-i]-purin-5-one as radioligand
Test [11] addresses T1, Adenosine receptor A3. The test can be described thus: biochemical. This is another data set of the same source.
Description: Bnding affinity in membrane of CHO cell stably expressing recombinant human Adenosine A3 receptor using [3H]8-ethyl-4-methyl-2-phenyl-(8R)-4,5,7,8-tetrahydro-1H-imidazo[2,1-i]-purin-5-one as radioligand

Adenosine receptor A3 (Homo sapiens, UniProt P0DMS8, W243A), sequence (P0DMS8 whole entry W243A): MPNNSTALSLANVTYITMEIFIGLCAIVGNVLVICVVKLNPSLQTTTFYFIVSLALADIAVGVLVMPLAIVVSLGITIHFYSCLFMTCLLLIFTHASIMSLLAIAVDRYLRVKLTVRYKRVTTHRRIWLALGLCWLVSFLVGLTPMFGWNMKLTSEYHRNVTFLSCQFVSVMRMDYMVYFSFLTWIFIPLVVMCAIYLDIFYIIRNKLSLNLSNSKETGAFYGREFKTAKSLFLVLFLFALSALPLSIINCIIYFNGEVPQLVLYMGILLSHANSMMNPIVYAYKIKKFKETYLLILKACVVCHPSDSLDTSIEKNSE
Adenosine receptor A3 (Homo sapiens, UniProt P0DMS8, H95A), sequence (P0DMS8 whole entry H95A): as the sequence (P0DMS8 whole entry W243A) above, with H95A, A243W counted along it

On Adenosine receptor A3 [1], `OC[C@H]1O[C@@H](n2cnc3c(NC4CCCC4)ncnc32)[C@H](O)[C@@H]1O` [N6-CYCLOPENTYLADENOSINE] yielded an EC50 of 0.242 µM. In addition, the Ki on Adenosine receptor A3 [2] came out at 0.142 µM; on Adenosine receptor A3 [3], 0.137 µM; at Adenosine receptor A3 [4], 0.615 µM.

Consider `CCCOC(=O)c1c(-c2ccccc2)nc(CC)c(C(=O)SCC)c1CCC`, for which the Ki turned out to be 2.15 µM at Adenosine receptor A3 [5], 0.357 µM at Adenosine receptor A3 [6], 0.234 µM at Adenosine receptor A3 [7] and 0.238 µM on Adenosine receptor A3 [2].

Compound `CNC(=O)C12CC1C(n1cnc3c(NC)nc(Cl)nc31)C(O)C2O` (configuration not stated) gave a Ki at Adenosine receptor A3 [8] of 0.0034 µM. On Adenosine receptor A3 [1], this compound showed a 50% effective concentration (EC50) of 0.0014 µM.

Compound `Nc1nc(Cl)nc2c1ncn2[C@@H]1O[C@H](CO)[C@@H](O)[C@H]1O` displayed a Ki at Adenosine receptor A3 [8] of 0.087 µM. Also, a half-maximal response at Adenosine receptor A3 [1] (EC50) required 1.63 µM.

On Adenosine receptor A3 [9], `CNC(=O)[C@H]1O[C@@H](n2cnc3c(NCc4cccc(I)c4)nc(Cl)nc32)[C@@H]2O[C@@H]21` came in with a Ki of 1.1 µM.

As to `OC[C@H]1O[C@@H](n2cnc3c(NCc4cccc(I)c4)nc(Cl)nc32)[C@H](O)[C@@H]1O`, the Ki was 0.0027 µM on Adenosine receptor A3 [6] and 0.0016 µM at Adenosine receptor A3 [7].

Take `OCC12CC1C(n1cnc3c(NCc4cccc(I)c4)ncnc31)C(O)C2O` (configuration not stated): the Ki on Adenosine receptor A3 [8] turned out to be 0.0092 µM; on Adenosine receptor A3 [2], 0.0039 µM; at Adenosine receptor A3 [3], 0.0027 µM; on Adenosine receptor A3 [4], 0.099 µM.

As to `Nc1nc(Cl)nc2c1ncn2C1C(O)C(O)C2(CO)CC12` (configuration not stated), the Ki was found to be 0.083 µM at Adenosine receptor A3 [2] and 0.046 µM at Adenosine receptor A3 [3].

In the case of `O=C1NCC[C@@]12O[C@@H](n1cnc3c(NCc4cccc(I)c4)ncnc31)[C@H](O)[C@@H]2O`, the Ki was 0.051 µM at Adenosine receptor A3 [6] and 0.049 µM at Adenosine receptor A3 [7].

As to `OCC12CC1C(n1cnc3c(NCc4cccc(I)c4)nc(Cl)nc31)C(O)C2O` (configuration not stated), the Ki was found to be 0.0019 µM at Adenosine receptor A3 [8]; 0.0013 µM on Adenosine receptor A3 [5]; 0.0029 µM on Adenosine receptor A3 [6]; 0.0013 µM on Adenosine receptor A3 [7]; 0.004 µM on Adenosine receptor A3 [10]; 0.0027 µM at Adenosine receptor A3 [11]. Besides, the Ki on Adenosine receptor A3 [2] was determined as 0.0017 µM; at Adenosine receptor A3 [4], 0.46 µM.

In the case of `OCC12CC1C(n1cnc3c(NCc4cccc(I)c4)nc(Cl)nc31)C1OC12` (configuration not stated), the figures for the Ki on Adenosine receptor A3 [8], at Adenosine receptor A3 [2] and on Adenosine receptor A3 [3] were 0.572 µM, 0.584 µM and 0.49 µM, respectively.

Turning to `Nc1nc(F)nc2c1ncn2[C@@H]1O[C@H](CO)[C@@H](O)[C@H]1O`, on Adenosine receptor A3 [8], the affinity corresponds to a Ki of 0.099 µM. The EC50 on Adenosine receptor A3 [1] was 2.66 µM.

With `CCCCn1c(=O)c2c(ncn2[C@@H]2O[C@H](C(=O)NC)[C@@H](O)[C@H]2O)n(CCCC)c1=O`, at Adenosine receptor A3 [8], the Ki turned out to be 0.816 µM. The compound also displayed an EC50 at Adenosine receptor A3 [1] of 0.828 µM.

As to `CNC(=O)C12CC1C(n1cnc3c(NCc4cccc(I)c4)ncnc31)C(O)C2O` (configuration not stated), the Ki on Adenosine receptor A3 [8] came to 0.0013 µM; at Adenosine receptor A3 [2], 0.0021 µM; on Adenosine receptor A3 [3] it was 0.0012 µM. For the same compound, the EC50 on Adenosine receptor A3 [1] stood at 0.0054 µM.

In general, EC50 refers to the midpoint of the concentration-response curve. A higher EC50 goes with a need for much substance. By Ki is commonly meant a measure of affinity in units of concentration, obtained from inhibition or displacement.
